Patent US9260439B2, “Dihydropyrrolopyrimidine derivatives” (PFIZER INC., priority 2014, dated 2016)
Counter-ions that a name gives are not always drawn.

target: truncated PI3Kα (p110α/iSH2 p85α) (Homo sapiens (Human), UniProt P42336); assay: PI3KA_Act fluorescence polarization kinase assay (Ki); format: biochemical; conditions: 1 mM ATP
Text: 2) p110α-iSH2 p85α Complex (Full Length p110α and p85α iSH2)(“PI3KA_Act”)
Genes encoding for full length p110α and p85α nSH-iSH2=niSH2 (p85a aminoacids 322-600) subunits of PI3Kα complex were subcloned from existing constructs into pFASTBAC Dual vector (Life Technologies, Carlsbad, Calif.) using standard cloning procedures. Gene encoding p110α subunit was subcloned into polyhedrine promoter while gene encoding p85α niSH2 domains was subcloned into p10 promoter. Additionally, Human Rhinovirus 3C Protease (“HRV 3C”) site was introduced between nSH2 and iSH2, replacing aminoacids 431-438 of p85α with […] HRV 3C recognition sequence, using standard QuickChange mutagenesis protocol (Agilent Technologies, CA). Recombinant baculovirus was generated using Bac-to-Bac protocol (Life Technologies, Carlsbad, Calif.). Large scale expression was conducted in Sf21 (Life Technologies, Carlsbad, Calif.) cells at a multiplicity of infection (“MOI”)=1 for 48 hours. Cells were lyzed in 50 mM Tris pH 8.0, 250 mM NaCl, 5% glycerol, 0.25 mM TCEP, and 20 mM imidazole. The p110α-niSH2 p85α complex was purified from clarified supernatant using Immobilized Metalo Affinity Chromatography (“IMAC”). The protein was eluted from the column using 50 mM Tris pH 8.0, 200 mM NaCl, 0.25 mM TCEP, and 200 mM imidazole. Following elution p110α-niSH2 p85α complex was dialyzed against 4 liters of 50 mM Tris pH 8.0, 200 mM NaCl, 0.25 mM TCEP, and 40 mM imidazole in the presence of PreScission Protease (1:70 molar ratio of Protease to Protein) and TEV protease (1:40 molar ratio protease to protein) for 16 hours at 4° C. The protein was further purified using reverse IMAC to remove cleaved histidine tag and contaminants captured during initial IMAC purification. The mixture of p110α-iSH2 p85α complex and cleaved nSH2 was recovered in reverse IMAC 40 mM imidazole flow through and 60 mM imidazole wash fractions. Those fractions were pulled together and loaded on Superdex 200 26/60 SEC column equilibrated in 25 mM Tris, pH 8.0, 100 mM NaCl, 2% glycerol, and 2 mM TCEP. Following SEC, chromatography peak fractions containing p110α-iSH2 p85α complex were pulled and concentrated to 4.3 mg/mL. Purity and integrity of the complex was confirmed using LCMS, analytical SEC and SDS-PAGE (sodium dodecyl sulfate polyacrylamide gel electrophoresis) analysis.
The biochemical assays of kinase activity of full-length PI3Kα (full-length p110α/p85a) or truncated PI3Kα (p110α/iSH2 p85a) were conducted using a fluorescence polarization format similar to the procedure of Yuan J., et al., (2011) “PF-04691502, a Potent and Selective Oral Inhibitor of PI3K and mTOR Kinases with Antitumor Activity”, Mol Cancer Ther. 10, 2189-2199. The enzymatic reactions were conducted in 50 μL volumes in 96-well plates. The reactions contained human recombinant PI3Kα (2 nM full-length p110α/p85α or 0.5 nM p110α/iSH2 p85) and 30 μM phosphatidylinositol 4,5-bisphosphate (“PIP2”) (Cayman Chemical Company, Ann Arbor, Mich.) and were sonicated for 1 minute prior to adding PI3Kα enzyme (PI3KA_Act or PI3KA_FL), DMSO or test compound (12-point 3-fold serial dilution, 3 μM top dose, 2° A) DMSO final concentration), 5 mM MgCl2, 50 mM HEPES pH 7.4, 150 mM NaCl, 1 mM DTT ((2S,3S)-1,4-bis(sulfanyl)butane-2,3-diol), and 0.05% 3-[(3-cholamidopropyl)dimethylammonio]-1-propanesulfonate (“CHAPS”). […] The reactions were incubated for 30 min at room temperature, stopped with EDTA pH 8 (10 mM final concentration). In a detection plate, 15 μL of detector/probe mixture, containing 480 nM GST-Grp1 PH domain protein (University of Dundee, Dundee, UK) and 12 nM carboxytetramethylrhodamine (“TAMRA”)-tagged fluorescent phosphatidylinositol (3,4,5)-triphosphate (“PIP3”) (Echelon Biosciences, Inc., Salt Lake City, Utah) in assay buffer, was mixed with 15 μL of kinase reaction mixture. The plate was shaken for 30 minutes and fluorescence polarization values were measured on an LJL Analyst HT plate reader (Molecular Devices, Sunnyvale, Calif.). […]

Sequence of truncated PI3Kα (p110α/iSH2 p85α) (P42336 whole entry, the tested form may be a part): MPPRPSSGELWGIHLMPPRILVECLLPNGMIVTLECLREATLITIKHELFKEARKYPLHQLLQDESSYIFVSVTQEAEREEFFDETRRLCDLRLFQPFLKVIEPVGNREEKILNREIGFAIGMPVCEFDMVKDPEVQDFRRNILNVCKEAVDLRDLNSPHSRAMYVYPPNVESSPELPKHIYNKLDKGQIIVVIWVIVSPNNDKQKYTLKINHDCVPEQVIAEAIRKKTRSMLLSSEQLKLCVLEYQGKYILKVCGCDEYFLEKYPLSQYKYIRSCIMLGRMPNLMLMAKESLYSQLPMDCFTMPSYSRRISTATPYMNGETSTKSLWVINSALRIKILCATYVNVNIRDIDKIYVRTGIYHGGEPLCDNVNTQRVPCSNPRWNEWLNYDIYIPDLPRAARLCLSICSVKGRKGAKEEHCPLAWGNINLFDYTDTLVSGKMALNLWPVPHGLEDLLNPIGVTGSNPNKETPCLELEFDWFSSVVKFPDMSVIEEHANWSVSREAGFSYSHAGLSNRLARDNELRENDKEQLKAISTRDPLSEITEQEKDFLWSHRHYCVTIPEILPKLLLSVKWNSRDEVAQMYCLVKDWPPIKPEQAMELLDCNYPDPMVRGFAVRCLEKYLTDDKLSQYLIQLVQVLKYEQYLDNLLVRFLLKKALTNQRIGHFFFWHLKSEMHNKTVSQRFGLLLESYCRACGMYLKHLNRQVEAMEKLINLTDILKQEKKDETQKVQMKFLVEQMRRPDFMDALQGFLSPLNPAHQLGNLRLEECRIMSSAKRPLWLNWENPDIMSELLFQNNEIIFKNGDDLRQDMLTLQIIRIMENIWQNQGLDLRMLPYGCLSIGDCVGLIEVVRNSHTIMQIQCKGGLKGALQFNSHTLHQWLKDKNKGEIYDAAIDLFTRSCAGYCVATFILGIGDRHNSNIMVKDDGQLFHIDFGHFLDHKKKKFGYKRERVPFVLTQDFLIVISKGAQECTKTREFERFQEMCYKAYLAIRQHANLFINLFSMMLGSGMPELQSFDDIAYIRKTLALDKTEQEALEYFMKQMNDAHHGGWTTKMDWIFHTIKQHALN

| Compound | PI3KA_Act Ki |
| --- | --- |
| C[C@H]1COCCN1c1nc(-c2cnc(N)nc2)c2c(n1)N(C1CN(S(=O)(=O)C3CN(C(=O)OC(C)(C)C)C3)C1)CC2 [Example 207] | 0.100 nM |
| C[C@H]1COCCN1c1nc(-c2cnc(N)nc2)c2c(n1)N([C@@H]1CCN(P(C)(C)=O)C1)CC2 [Example 177] | 0.615 nM |
| CC(C)S(=O)(=O)N1CC(C)(N2CCc3c(-c4cnc(N)nc4)nc(N4CCOCC4)nc32)C1 [Example 198] | 0.024 nM |
| C[C@H](O)COC(=O)N1CC(N2CCc3c(-c4cnc(N)nc4)nc(N4CCOCC4)nc32)C1 [Example 167] | 0.230 nM |
| CN(C)CC(=O)N1CC[C@](C)(N2CCc3c(-c4cnc(N)nc4)nc(N4CCOCC4)nc32)C1 [Example 299, 1-{(3S)-3-[4-(2-aminopyrimidin-5-yl)-2-(morpholin-4-yl)-5,6-dihydro-7H-pyrrolo[2,3-d]pyrimidin-7-yl]-3-methylpyrrolidin-1-yl}-2-(dimethylamino) ethanone] | <0.018 nM |
| CNS(=O)(=O)N1CC[C@@](C)(N2CCc3c(-c4cnc(N)nc4)nc(N4CCOCC4)nc32)C1 [Example 172] | 0.029 nM |
| CC(C)(C)OC(=O)N1CC(N2CCc3c(-c4cnc(N)nc4)nc(N4CCOCC4)nc32)C1 [Example 248, tert-butyl 3-[4-(2-aminopyrimidin-5-yl)-2-(morpholin-4-yl)-5,6-dihydro-7H-pyrrolo[2,3-d]pyrimidin-7-yl]azetidine-1-carboxylate] | 0.212 nM |
| C[C@H]1COCCN1c1nc(-c2cnc(N)nc2)c2c(n1)N(C(C)(C)C)CC2 [Example 157] | 0.173 nM |
| CC(C)(C(N)=O)C(=O)N1CC[C@](C)(N2CCc3c(-c4cnc(N)nc4)nc(N4CCOCC4)nc32)C1 [Example 318, 3-{(3S)-3-[4-(2-aminopyrimidin-5-yl)-2-(morpholin-4-yl)-5,6-dihydro-7H-pyrrolo[2,3-d]pyrimidin-7-yl]-3-methylpyrrolidin-1-yl}-2,2-dimethyl-3-oxopropanamide] | 0.076 nM |
| C[C@@]1(N2CCc3c(-c4cnc(N)nc4)nc(N4CCOCC4)nc32)CCNC1 [Example 215] | 0.476 nM |
| CC(C)[C@@H](N)C(=O)N1CC[C@](C)(N2CCc3c(-c4cnc(N)nc4)nc(N4CCOCC4)nc32)C1.Cl [Example 310, (2R)-2-amino-1-{(3S)-3-[4-(2-aminopyrimidin-5-yl)-2-(morpholin-4-yl)-5,6-dihydro-7H-pyrrolo[2,3-d]pyrimidin-7-yl]-3-methylpyrrolidin-1-yl}-3-methylbutan-1-one hydrochloride] | 0.022 nM |
| CC(C)[C@@H](N)C(=O)N1CC[C@@H](N2CCc3c(-c4cnc(N)nc4)nc(N4CCOCC4)nc32)C1.Cl [Example 286, (2R)-2-amino-1-{(3R)-3-[4-(2-aminopyrimidin-5-yl)-2-(morpholin-4-yl)-5,6-dihydro-7H-pyrrolo[2,3-d]pyrimidin-7-yl]pyrrolidin-1-yl}-3-methylbutan-1-one hydrochloride] | 5.810 nM |
| C[C@]1(N2CCc3c(-c4cnc(N)nc4)nc(N4CCOCC4)nc32)CCN(C(=O)N2CC(C#N)C2)C1 [Example 363, 1-({(3S)-3-[4-(2-aminopyrimidin-5-yl)-2-(morpholin-4-yl)-5,6-dihydro-7H-pyrrolo[2,3-d]pyrimidin-7-yl]-3-methylpyrrolidin-1-yl}carbonyl)azetidine-3-carbonitrile] | 0.039 nM |
| C[C@]1(N2CCc3c(-c4cnc(N)nc4)nc(N4CCOCC4)nc32)CCN(C(=O)C2(F)CNC2)C1.Cl [Example 352, {(3S)-3-[4-(2-aminopyrimidin-5-yl)-2-(morpholin-4-yl)-5,6-dihydro-7H-pyrrolo[2,3-d]pyrimidin-7-yl]-3-methylpyrrolidin-1-yl}(3-fluoroazetidin-3-yl)methanone hydrochloride] | <0.018 nM |
| C[C@H]1COCCN1c1nc(-c2cnc(N)nc2)c2c(n1)N([C@]13CNC[C@H]1C3)CC2.Cl [Example 530, 5-{7-[(1S,5R)-3-azabicyclo[3.1.0]hex-1-yl]-2-[(3S)-3-methylmorpholin-4-yl]-6,7-dihydro-5H-pyrrolo[2,3-d]pyrimidin-4-yl}pyrimidin-2-amine hydrochloride] | 2.624 nM |
| COCCS(=O)(=O)N1CC(N2CCc3c(-c4cnc(N)nc4)nc(N4CCOC[C@@H]4C)nc32)C1 [Example 155] | 0.116 nM |
| C[C@H](N)C(=O)N1CC[C@](C)(N2CCc3c(-c4cnc(N)nc4)nc(N4CCOC[C@@H]4C)nc32)C1.Cl [Example 475, (2S)-2-amino-1-[(3S)-3-{4-(2-aminopyrimidin-5-yl)-2-[(3S)-3-methylmorpholin-4-yl]-5,6-dihydro-7H-pyrrolo[2,3-d]pyrimidin-7-yl}-3-methylpyrrolidin-1-yl]propan-1-one hydrochloride] | 0.068 nM |
| C[C@H]1COCCN1c1nc(-c2cnc(N)nc2)c2c(n1)N(C1(C)CN(S(C)(=O)=O)C1)CC2 [Example 206] | 0.031 nM |
| Cn1nccc1C(=O)N1CC[C@](C)(N2CCc3c(-c4cnc(N)nc4)nc(N4CCOCC4)nc32)C1 [Example 385, {(3S)-3-[4-(2-aminopyrimidin-5-yl)-2-(morpholin-4-yl)-5,6-dihydro-7H-pyrrolo[2,3-d]pyrimidin-7-yl]-3-methylpyrrolidin-1-yl}(1-methyl-1H-pyrazol-5-yl)methanone] | <0.018 nM |
| CC(C(N)=O)C(=O)N1CC[C@](C)(N2CCc3c(-c4cnc(N)nc4)nc(N4CCOCC4)nc32)C1 (single isomer, unassigned) [Example 316] | 0.019 nM |
| C[C@]1(N2CCc3c(-c4cnc(N)nc4)nc(N4CCOCC4)nc32)CCN(CC(N)=O)C1 [Example 399, 2-{(3S)-3-[4-(2-aminopyrimidin-5-yl)-2-(morpholin-4-yl)-5,6-dihydro-7H-pyrrolo[2,3-d]pyrimidin-7-yl]-3-methylpyrrolidin-1-yl}acetamide] | 0.074 nM |
| C[C@]1(N2CCc3c(-c4cnc(N)nc4)nc(N4CCOCC4)nc32)CCN(C(=O)CC#N)C1 [Example 265, 3-{(3S)-3-[4-(2-aminopyrimidin-5-yl)-2-(morpholin-4-yl)-5,6-dihydro-7H-pyrrolo[2,3-d]pyrimidin-7-yl]-3-methylpyrrolidin-1-yl}-3-oxopropanenitrile] | 0.048 nM |
| C[C@]1(N2CCc3c(-c4cnc(N)nc4)nc(N4CCOCC4)nc32)CCN(C(=O)C2CNC2)C1.Cl [Example 349, {(3S)-3-[4-(2-aminopyrimidin-5-yl)-2-(morpholin-4-yl)-5,6-dihydro-7H-pyrrolo[2,3-d]pyrimidin-7-yl]-3-methylpyrrolidin-1-yl}(azetidin-3-yl)methanone hydrochloride] | 0.026 nM |
| CC(=O)N1CC(S(=O)(=O)N2CC(N3CCc4c(-c5cnc(N)nc5)nc(N5CCOC[C@@H]5C)nc43)C2)C1 [Example 223] | 0.393 nM |

same assay, conditions: 1 mM ATP, hydrochloride

| Compound | PI3KA_Act Ki |
| --- | --- |
| CC1(N2CCc3c(-c4cnc(N)nc4)nc(N4CCOCC4)nc32)CCCNC1 (single isomer, unassigned) [Example 431, 5-[7-(3-methylpiperidin-3-yl)-2-(morpholin-4-yl)-6,7-dihydro-5H-pyrrolo[2,3-d]pyrimidin-4-yl]pyrimidin-2-amine hydrochloride] | 14.544 nM |
